Assays:
Experiment in all cases: relative viability (nuclei count vs DMSO), 5 days (fraction); higher = more cells survive
Dabrafenib + Tozasertib = compound: CC(C)(C)c1nc(-c2cccc(NS(=O)(=O)c3c(F)cccc3F)c2F)c(-c2ccnc(N)n2)s1 [Dabrafenib] + Cc1cc(Nc2cc(N3CCN(C)CC3)nc(Sc3ccc(NC(=O)C4CC4)cc3)n2)n[nH]1 [Tozasertib] (partner 0.1 µM)
Summary of the method: (§1)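 Relative viability is defined as nuclei in treated wells over nuclei in vehicle wells. Duplicate plates were run and medians reported. Lung cancer cell lines in 1536-well plates were dosed by pin tool one day after seeding, with one drug or with a fixed anchor-drug dose plus five library-drug doses (not always all listed) in √10 steps, and nuclei were counted after 5 days.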

VX-702 + Navitoclax = compound: NC(=O)c1ccc(N(C(N)=O)c2c(F)cccc2F)nc1-c1ccc(F)cc1F [VX-702] + CC1(C)CCC(c2ccc(Cl)cc2)=C(CN2CCN(c3ccc(C(=O)NS(=O)(=O)c4ccc(N[C@H](CCN5CCOCC5)CSc5ccccc5)c(S(=O)(=O)C(F)(F)F)c4)cc3)CC2)C1 [Navitoclax] (partner 0.5 µM)
Summary of the method: as §1

VX-702 + Crizotinib = compound: NC(=O)c1ccc(N(C(N)=O)c2c(F)cccc2F)nc1-c1ccc(F)cc1F [VX-702] + C[C@@H](Oc1cc(-c2cnn(C3CCNCC3)c2)cnc1N)c1c(Cl)ccc(F)c1Cl [Crizotinib] (partner 1 µM)
Summary of the method: as §1

VX-702 + Pemetrexed = compound: NC(=O)c1ccc(N(C(N)=O)c2c(F)cccc2F)nc1-c1ccc(F)cc1F [VX-702] + Nc1nc2[nH]cc(CCc3ccc(C(=O)N[C@@H](CCC(=O)O)C(=O)O)cc3)c2c(=O)[nH]1 [Pemetrexed] (partner 0.2 µM)
Summary of the method: as §1

Cell Line | relative viability (Dabrafenib + Tozasertib; first compound 0.003 µM) | relative viability (Dabrafenib + Tozasertib; first compound 0.009487 µM) | relative viability (Dabrafenib + Tozasertib; first compound 0.03 µM) | relative viability (Dabrafenib + Tozasertib; first compound 0.09487 µM) | relative viability (Dabrafenib + Tozasertib; first compound 0.3 µM) | relative viability (VX-702 + Navitoclax; first compound 0.02 µM) | relative viability (VX-702 + Navitoclax; first compound 0.2 µM) | relative viability (VX-702 + Navitoclax; first compound 0.6325 µM) | relative viability (VX-702 + Navitoclax; first compound 2 µM) | relative viability (VX-702 + Crizotinib; first compound 0.02 µM) | relative viability (VX-702 + Crizotinib; first compound 0.2 µM) | relative viability (VX-702 + Crizotinib; first compound 0.6325 µM) | relative viability (VX-702 + Crizotinib; first compound 2 µM) | relative viability (VX-702 + Pemetrexed; first compound 0.02 µM) | relative viability (VX-702 + Pemetrexed; first compound 0.2 µM) | relative viability (VX-702 + Pemetrexed; first compound 0.6325 µM) | relative viability (VX-702 + Pemetrexed; first compound 2 µM)
EMC-BAC-2 | 0.286 | 0.284 | 0.23 | 0.243 | 0.267 | 1.19 | 1.13 | 1.18 | 1.24 | 0.779 | 0.678 | 0.791 | 0.698 | 0.472 | 0.436 | 0.407 | 0.416
EPLC-272H | 0.345 | 0.326 | 0.33 | 0.273 | 0.256 | 1.23 | 1.08 | 1.05 | 1.17 | 0.968 | 0.773 | 0.983 | 1.16 | 0.354 | 0.402 | 0.318 | 0.403
H3255 | 0.507 | 0.675 | 0.721 | 0.609 | 0.629 | 0.508 | 0.446 | 0.501 | 0.557 | 0.774 | 1.09 | 0.855 | 0.86 | 0.565 | 0.612 | 0.551 | 0.599
HARA | 0.101 | 0.116 |  | 0.115 | 0.113 | 1.08 | 1.14 | 1.05 | 1.09 | 1.1 | 0.982 | 1.07 | 1.13 | 0.235 |  | 0.277 | 0.256
HCC-15 | 0.602 | 0.506 | 0.355 | 0.398 | 0.386 | 0.691 | 0.648 | 0.656 | 0.699 | 0.873 | 0.834 | 0.759 | 0.848 | 0.223 | 0.22 | 0.227 | 0.248
HCC-44 | 0.959 | 0.974 | 0.976 | 0.836 | 0.989 | 0.93 | 0.99 | 0.881 | 1.09 | 0.802 | 0.739 | 0.817 | 0.971 | 0.615 | 0.652 | 0.653 | 0.678
HCC-78 |  | 0.485 | 0.42 | 0.387 | 0.54 | 0.673 | 0.772 | 0.806 | 0.852 | 0.348 | 0.327 | 0.321 | 0.341 | 0.874 | 0.883 | 0.901 | 0.889
HCC-366 | 0.088 | 0.187 | 0.0643 | 0.104 | 0.0995 | 0.971 | 0.988 | 1.1 | 0.918 | 0.588 | 0.396 | 0.525 | 0.601 | 0.171 | 0.149 | 0.203 | 0.165
HCC-827 | 0.426 | 0.457 | 0.383 |  | 0.377 | 1.01 | 0.988 | 0.891 | 0.939 | 0.922 | 0.9 | 0.869 | 0.906 | 0.244 | 0.252 | 0.287 | 0.18
